Results taken from US20200352907A1, “Use Of Carbamate Compound For Preventing, Alleviating Or Treating Absence Seizure Or Epilepsy Showing Absence Seizure” (SK BIOPHARMACEUTICALS CO., LTD., priority 2017, published 2020).

Tests used:
GAERS model rats = conditions: known from literature; cited from earlier work
[1] = test system: GAERS (Genetic Absence Epilepsy Rat from Strasbourg) model; assay: Efficacy test in GAERS model rats: EEG analysis of spike-and-wave discharges (SWD); format: in vivo; conditions: for cumulated duration of SWD / number of occurrences of SWD: 20-minute intervals 10-90 min after administration, 2-way ANOVA vs vehicle; for cumulated duration of SWD, total effect for 1 hour after administration / number of occurrences of SWD, total effect for 1 hour after administration: 1-way ANOVA vs vehicle, effect similar to valproate 150 and 200 mg/kg
Description: Twelve 5-week-old GAERS model rats were purchased from the Grenoble Institute of Neurosciences, France. After purchase, the rats were bred at a temperature of 21±2° C. under conditions of free access to food and water, and controlled light (illuminated from 8 am to 8 pm), and the condition was maintained for 2 months prior to surgery.
EEG electrodes were implanted into twelve 3-month-old GAERS rats. Stereotaxic implantation was performed under anesthesia with isoflurane (2% concentration in oxygen). The rats were fixed to the stereotaxic frame and surgery was performed while observing body temperature. An ophthalmic gel was used to prevent drying of the cornea. After cutting the hair of the incision site, it was disinfected with povidone, and after incision, four holes were drilled using a drill at the frontal cortical and parietal cortical positions of both hemispheres of the open skull. Monopolar electrodes were placed in these holes and then connected to a female connector fixed to the skull for EEG recording. The incision site was then sutured. After surgery, buprenorphine was injected subcutaneously at a dose of 0.1 mg/kg, and the anesthetic was removed and observed until recovery of consciousness. After that, the rats were kept in a cage for recovery for a week.
One week after the electrode implantation, preliminary EEG measurements of 1 hour were performed on all 12 animals, and 10 animals showing enough signal-to-noise suitable for detecting generation of SWD were selected.
Test compound and positive control drug were prepared immediately before administration. Carbamic acid (R)-1-(2-chlorophenyl)-2-tetrazol-2-yl-ethyl ester prepared in the above preparation example was used as the test compound which was dissolved in 30% (volume/volume) PEG300 (81164-14, Sigma-Aldrich), and the positive control valproate (P4543, Sigma-Aldrich) was dissolved in 0.9% sterile saline (Cooper, France). Both drugs were administered intraperitoneally at a dose of 5 ml/kg. 30% PEG300 was used for vehicle administration as the negative control.
The test was done in a cross-over method, with a minimum interval of 71 hours between each administration for wash-out of the drug. In the first stage test, the following conditions were administered. • Vehicle (30% PEG300) • Valproate 200 mg/kg • Test compound 5 mg/kg • Test compound 10 mg/kg • Test compound 20 mg/kg
In the second stage test, the following conditions were administered. • Valproate 150 mg/kg • Test compound 30 mg/kg
For EEG recording, 10 GAERS rats were placed in a recording chamber and then connected to a wire for EEG recording. After an hour of habituation process, EEG recordings of free-moving animals were performed. As a baseline phase, 20 minutes of recording were performed before drug administration, and 90 minutes of recording were performed after drug administration, using SystemPlus Evolution (Micromed). During the recording, the animals were kept in a quiet wakefulness state.
The generated SWD was analyzed using the recorded EEG data, and all data analysis was performed by blind method. SWD was analyzed for the 20-minute baseline phase and for a total of 80 minutes period from 10 to 90 minutes after drug administration. The 80 minutes were analyzed by dividing them into 20-minute intervals, and the number of occurrences of SWD and the cumulated SWD duration (the cumulated duration of SWD) were analyzed.
Results were expressed as mean value ±standard error, and prism (graphpad) was used for statistical analysis. 2-way ANOVA was used for the number of occurrences of SWD and the cumulated duration of SWD over time. Bonferroni's paired comparison method was used for comparison with the baseline period, comparison with the vehicle-administered negative control and comparison with the valproate-administered positive control. […]

[2] = compared with valproate positive control

CCC1(C)CC(=O)NC1=O (stereo not shown) [ethosuximide]
SWD in the GAERS model rats (GAERS model rats): inhibited

NC(=O)O[C@@H](Cn1ncnn1)c1ccccc1Cl [test compound, Carbamic acid (R)-1-(2-chlorophenyl)-2-tetrazol-2-yl-ethyl ester]
effect duration (cumulated duration of SWD) [1, 2]: longer duration than valproate
effect duration (number of occurrences of SWD) [1, 2]: longer duration than valproate
cumulated duration of SWD ([1]; test compound 10 mg/kg i.p.): significant reduction effect in the 30-50 min and 50-70 min intervals after administration
number of occurrences of SWD ([1]; test compound 10 mg/kg i.p.): significance in the 30 to 50 min interval after administration
cumulated duration of SWD, total effect for 1 hour after administration ([1]; test compound 20 mg/kg i.p.): significantly reduced the cumulated duration of SWD compared to the vehicle administration group
number of occurrences of SWD, total effect for 1 hour after administration ([1]; test compound 20 mg/kg i.p.): significantly reduced the number of occurrences of SWD compared to the vehicle administration group
cumulated duration of SWD ([1]; test compound 20 mg/kg i.p.): significant reduction effect in the 30-90 min interval after administration
number of occurrences of SWD ([1]; test compound 20 mg/kg i.p.): significance in the 30 to 90 min interval after administration
cumulated duration of SWD, total effect for 1 hour after administration ([1]; test compound 30 mg/kg i.p.): significantly reduced the cumulated duration of SWD compared to the vehicle administration group
number of occurrences of SWD, total effect for 1 hour after administration ([1]; test compound 30 mg/kg i.p.): significantly reduced the number of occurrences of SWD compared to the vehicle administration group
cumulated duration of SWD ([1]; test compound 30 mg/kg i.p.): significant reduction effect in the entire period after administration
number of occurrences of SWD ([1]; test compound 30 mg/kg i.p.): significance in the entire period after administration
